Test system: endothelial monolayers (gp60-mediated caveolar transcytosis)
Experiment: inhibition of transport of paclitaxel from ABX across endothelial monolayers
Type: in vitro ADME, human
Source text: Transport was dependent on albumin.

Compound	effect on transport of paclitaxel from ABX
CCN1C(=O)C=CC1=O [NEM]	inhibited
[…]-methyl cyclodextrin [BMC]	inhibited

From patent US8916204B2, “SPARC and methods of use thereof” (Abraxis BioScience, LLC, priority 2004, dated 2014)
